From patent US8283342B2, “Napadisylate salt of 5-(2-{[6-(2,2-difluoro-2-phenylethoxy) hexyl]amino}-1-hydroxyethyl)-8-hydroxyquinolin-2(1H)-one as agonist of the β2 adrenergic receptor” (Almirall S.A., priority 2007, dated 2012)

How the values were obtained:
[1] = Differential scanning calorimetry (DSC) analysis; format: physicochemical; conditions: equilibrated at 30° C., heated at 10° C./min to 300° C.
Procedure: The differential scanning calorimetry (DSC) analysis was obtained using a DSC-821 Mettler-Toledo, serial number 5117423874. Samples were weighed into an aluminium pan, an aluminium lid placed on top of the sample and compressed with a brass rod. Samples were equilibrated at 30° C. and heated at 10° C./min to 300° C. The instrument was calibrated using indium and zinc standards.

[2] = Thermogravimetric (TGA) analysis; format: physicochemical
Procedure: The thermogravimetric (TGA) analysis was obtained using a TGA-SDTA-851 Mettler-Toledo, serial number 5118408555. Samples were placed into a tared aluminium pan and then positioned on a platinum crucible. Samples were heated from 30° C. at 10° C./min to 350° C. The instrument was calibrated using indium and aluminium standards.

O=S(=O)(O)c1cccc2c(S(=O)(=O)O)cccc12.O=c1ccc2c([C@@H](O)CNCCCCCCOCC(F)(F)c3ccccc3)ccc(O)c2[nH]1.O=c1ccc2c([C@@H](O)CNCCCCCCOCC(F)(F)c3ccccc3)ccc(O)c2[nH]1 [5-(-2-(6-(2,2-Difluoro-2-phenylethoxy)hexylamino)-1(R)-hydroxyethyl)-8-hydroxyquinolin-2(1H)-one heminapadisylate]
stability (no changes prior to the melting point range; no conversion into other polymorphs, no decomposition) [1]: high stability
weight loss due to the decomposition of the sample ([2]; from approximately 200° C. to 220° C., heated from 30° C. at 10° C./min to 350° C.): 3.1 % w/w
hygroscopicity (no solvent/water release) ([2]; prior to 200° C., in particular at 80-100° C., no change): lack of hygroscopicity
